Laboratory results taken from the kinase profiling compilation of Christmann-Franck et al. (2016).

How the values were obtained:
Assay in all cases: KINOMEscan competition binding
Settings in all cases: compound 1.0 µM
[1] = target: ABL1 (human) (UniProt P00519)
[2] = tested on: ABL1 (human), P00519 [M351T]
[3] = target: ACVR2A (human) (UniProt P27037)
[4] = target: AURKB (human) (UniProt Q96GD4)
[5] = target: BLK (human) (UniProt P51451)
[6] = target: BMP2K (human) (UniProt Q9NSY1)
[7] = target: BRAF (human) (UniProt P15056)
[8] = target: BRSK1 (human) (UniProt Q8TDC3)
[9] = target: CAMK2A (human) (UniProt Q9UQM7)
[10] = target: CAMK2B (human) (UniProt Q13554)
[11] = target: CDC42BPG (human) (UniProt Q6DT37)
[12] = target: CDK17 (human) (UniProt Q00537)
[13] = target: CDK3 (human) (UniProt Q00526)
[14] = target: CSK (human) (UniProt P41240)
[15] = target: CSNK1A1L (human) (UniProt Q8N752)
[16] = target: DDR1 (human) (UniProt Q08345)
[17] = target: DDR2 (human) (UniProt Q16832)
[18] = tested on: EGFR (human), P00533 [G719S]
[19] = target: EPHA7 (human) (UniProt Q15375)
[20] = target: EPHB1 (human) (UniProt P54762)
[21] = target: FGFR1 (human) (UniProt P11362)
[22] = target: FGR (human) (UniProt P09769)
[23] = target: GRK1 (human) (UniProt Q15835)
[24] = target: IKBKB (human) (UniProt O14920)
[25] = target: INSRR (human) (UniProt P14616)
[26] = target: KIT (human) (UniProt P10721)
[27] = target: LTK (human) (UniProt P29376)
[28] = target: MAP3K5 (human) (UniProt Q99683)
[29] = target: MAPK15 (human) (UniProt Q8TD08)
[30] = target: MYLK2 (human) (UniProt Q9H1R3)
[31] = target: MYLK3 (human) (UniProt Q32MK0)
[32] = target: PKN1 (human) (UniProt Q16512)
[33] = target: RPS6KA4 KD2 (human) (UniProt O75676)
[34] = target: RPS6KA6 KD1 (human) (UniProt Q9UK32)
[35] = target: SRC (human) (UniProt P12931)
[36] = target: STK17A (human) (UniProt Q9UEE5)
[37] = target: STK38 (human) (UniProt Q15208)
[38] = target: STK39 (human) (UniProt Q9UEW8)
[39] = target: TIE1 (human) (UniProt P35590)
[40] = target: TNNI3K (human) (UniProt Q59H18)

Chain of CAMK2B (human) (Q13554 whole entry, looked up): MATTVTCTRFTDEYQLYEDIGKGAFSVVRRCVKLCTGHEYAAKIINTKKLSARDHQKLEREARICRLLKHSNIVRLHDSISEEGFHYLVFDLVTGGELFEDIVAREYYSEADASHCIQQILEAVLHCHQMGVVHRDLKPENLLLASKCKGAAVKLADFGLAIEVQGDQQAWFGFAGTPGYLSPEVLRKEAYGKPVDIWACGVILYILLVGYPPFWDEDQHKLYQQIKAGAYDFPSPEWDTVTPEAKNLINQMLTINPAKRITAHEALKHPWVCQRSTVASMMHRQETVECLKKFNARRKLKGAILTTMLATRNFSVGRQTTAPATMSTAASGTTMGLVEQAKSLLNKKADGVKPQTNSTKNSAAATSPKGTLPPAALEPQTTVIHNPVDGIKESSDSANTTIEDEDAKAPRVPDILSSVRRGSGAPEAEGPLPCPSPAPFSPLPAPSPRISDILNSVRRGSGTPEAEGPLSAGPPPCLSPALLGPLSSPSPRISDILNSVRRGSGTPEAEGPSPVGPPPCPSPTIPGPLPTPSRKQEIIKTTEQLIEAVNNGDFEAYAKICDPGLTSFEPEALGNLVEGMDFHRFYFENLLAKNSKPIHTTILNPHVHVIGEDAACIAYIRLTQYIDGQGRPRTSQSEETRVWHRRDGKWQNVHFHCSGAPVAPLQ
Chain of KIT (human) (P10721 whole entry, looked up): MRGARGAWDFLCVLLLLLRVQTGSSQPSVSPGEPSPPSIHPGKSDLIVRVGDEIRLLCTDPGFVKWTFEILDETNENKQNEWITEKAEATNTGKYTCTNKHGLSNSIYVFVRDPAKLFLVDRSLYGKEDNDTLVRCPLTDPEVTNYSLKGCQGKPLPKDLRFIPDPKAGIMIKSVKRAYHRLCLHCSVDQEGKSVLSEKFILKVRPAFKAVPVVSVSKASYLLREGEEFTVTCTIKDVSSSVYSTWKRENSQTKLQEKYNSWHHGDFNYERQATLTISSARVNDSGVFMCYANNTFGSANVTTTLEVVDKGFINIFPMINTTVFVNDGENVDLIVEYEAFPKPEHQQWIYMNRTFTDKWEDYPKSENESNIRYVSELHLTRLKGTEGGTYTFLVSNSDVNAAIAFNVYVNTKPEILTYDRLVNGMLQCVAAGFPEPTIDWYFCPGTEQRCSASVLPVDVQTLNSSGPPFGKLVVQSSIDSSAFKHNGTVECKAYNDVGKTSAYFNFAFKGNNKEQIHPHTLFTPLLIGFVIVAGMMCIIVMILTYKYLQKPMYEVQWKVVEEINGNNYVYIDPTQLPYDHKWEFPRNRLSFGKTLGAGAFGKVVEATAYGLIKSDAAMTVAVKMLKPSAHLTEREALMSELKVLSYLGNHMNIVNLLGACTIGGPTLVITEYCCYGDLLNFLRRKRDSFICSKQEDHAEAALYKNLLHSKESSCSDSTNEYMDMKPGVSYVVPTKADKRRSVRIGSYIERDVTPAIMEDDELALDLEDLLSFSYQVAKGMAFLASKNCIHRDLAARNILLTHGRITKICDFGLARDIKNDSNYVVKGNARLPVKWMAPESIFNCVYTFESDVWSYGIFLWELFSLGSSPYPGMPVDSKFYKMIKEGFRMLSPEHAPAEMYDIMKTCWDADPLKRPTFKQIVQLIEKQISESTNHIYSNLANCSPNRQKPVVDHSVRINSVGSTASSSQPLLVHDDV
Chain of DDR2 (human) (Q16832 whole entry, looked up): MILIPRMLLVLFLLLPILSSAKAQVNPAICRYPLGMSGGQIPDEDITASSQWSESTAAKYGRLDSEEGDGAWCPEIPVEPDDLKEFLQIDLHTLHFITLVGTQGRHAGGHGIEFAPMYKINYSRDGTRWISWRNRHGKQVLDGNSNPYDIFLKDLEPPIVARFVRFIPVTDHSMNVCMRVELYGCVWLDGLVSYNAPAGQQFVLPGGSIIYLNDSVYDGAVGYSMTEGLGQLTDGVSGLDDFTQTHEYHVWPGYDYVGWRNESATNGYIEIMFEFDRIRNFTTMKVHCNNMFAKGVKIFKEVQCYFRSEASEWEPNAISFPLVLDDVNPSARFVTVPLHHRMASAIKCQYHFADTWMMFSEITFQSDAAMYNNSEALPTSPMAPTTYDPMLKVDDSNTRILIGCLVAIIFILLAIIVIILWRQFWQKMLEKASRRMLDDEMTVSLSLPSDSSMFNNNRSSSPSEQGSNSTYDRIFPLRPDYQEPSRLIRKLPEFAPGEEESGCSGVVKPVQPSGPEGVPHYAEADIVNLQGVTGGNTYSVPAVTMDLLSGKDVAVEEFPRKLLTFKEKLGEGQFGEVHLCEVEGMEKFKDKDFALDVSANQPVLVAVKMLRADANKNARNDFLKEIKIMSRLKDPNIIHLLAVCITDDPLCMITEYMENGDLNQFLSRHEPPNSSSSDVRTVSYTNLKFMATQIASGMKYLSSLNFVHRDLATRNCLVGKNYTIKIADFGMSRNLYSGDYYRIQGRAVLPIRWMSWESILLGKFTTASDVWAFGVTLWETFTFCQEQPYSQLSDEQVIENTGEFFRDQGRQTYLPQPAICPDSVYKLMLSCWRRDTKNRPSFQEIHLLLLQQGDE
Chain of RPS6KA4 KD2 (human) (O75676 whole entry, looked up): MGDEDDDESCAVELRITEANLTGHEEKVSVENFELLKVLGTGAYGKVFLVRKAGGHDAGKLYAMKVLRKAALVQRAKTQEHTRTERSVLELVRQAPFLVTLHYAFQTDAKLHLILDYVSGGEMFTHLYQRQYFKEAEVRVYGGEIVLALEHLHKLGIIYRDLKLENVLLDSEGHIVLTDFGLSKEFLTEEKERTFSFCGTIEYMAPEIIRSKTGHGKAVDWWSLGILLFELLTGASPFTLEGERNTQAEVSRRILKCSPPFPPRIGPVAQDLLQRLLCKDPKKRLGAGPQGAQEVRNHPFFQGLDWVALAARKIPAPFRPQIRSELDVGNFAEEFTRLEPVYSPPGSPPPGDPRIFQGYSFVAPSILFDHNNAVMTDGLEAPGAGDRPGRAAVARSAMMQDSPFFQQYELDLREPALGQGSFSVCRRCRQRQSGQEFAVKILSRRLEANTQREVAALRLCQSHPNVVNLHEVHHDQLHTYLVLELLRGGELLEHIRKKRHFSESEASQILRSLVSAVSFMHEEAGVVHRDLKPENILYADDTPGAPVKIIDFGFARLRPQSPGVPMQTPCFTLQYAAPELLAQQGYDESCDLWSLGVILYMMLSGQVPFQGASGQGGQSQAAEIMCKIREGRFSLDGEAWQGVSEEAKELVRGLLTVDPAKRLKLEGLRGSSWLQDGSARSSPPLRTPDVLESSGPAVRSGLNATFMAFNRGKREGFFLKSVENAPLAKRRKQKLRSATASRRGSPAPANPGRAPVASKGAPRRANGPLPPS
Chain of MAPK15 (human) (Q8TD08 whole entry, looked up): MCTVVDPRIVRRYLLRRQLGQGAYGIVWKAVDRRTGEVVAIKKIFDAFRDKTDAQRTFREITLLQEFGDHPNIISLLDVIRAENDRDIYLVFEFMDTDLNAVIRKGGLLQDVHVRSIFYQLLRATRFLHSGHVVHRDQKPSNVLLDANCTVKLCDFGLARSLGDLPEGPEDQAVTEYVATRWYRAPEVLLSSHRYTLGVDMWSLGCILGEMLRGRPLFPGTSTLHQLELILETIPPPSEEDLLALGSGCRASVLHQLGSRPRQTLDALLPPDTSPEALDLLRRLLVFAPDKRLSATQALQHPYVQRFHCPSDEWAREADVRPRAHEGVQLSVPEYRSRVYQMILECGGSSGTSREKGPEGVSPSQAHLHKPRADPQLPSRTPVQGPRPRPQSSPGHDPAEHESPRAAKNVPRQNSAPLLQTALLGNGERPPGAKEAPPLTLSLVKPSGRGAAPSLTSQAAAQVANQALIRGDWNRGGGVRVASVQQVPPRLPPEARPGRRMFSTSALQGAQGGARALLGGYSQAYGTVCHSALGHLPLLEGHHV
Chain of BRAF (human) (P15056 whole entry, looked up): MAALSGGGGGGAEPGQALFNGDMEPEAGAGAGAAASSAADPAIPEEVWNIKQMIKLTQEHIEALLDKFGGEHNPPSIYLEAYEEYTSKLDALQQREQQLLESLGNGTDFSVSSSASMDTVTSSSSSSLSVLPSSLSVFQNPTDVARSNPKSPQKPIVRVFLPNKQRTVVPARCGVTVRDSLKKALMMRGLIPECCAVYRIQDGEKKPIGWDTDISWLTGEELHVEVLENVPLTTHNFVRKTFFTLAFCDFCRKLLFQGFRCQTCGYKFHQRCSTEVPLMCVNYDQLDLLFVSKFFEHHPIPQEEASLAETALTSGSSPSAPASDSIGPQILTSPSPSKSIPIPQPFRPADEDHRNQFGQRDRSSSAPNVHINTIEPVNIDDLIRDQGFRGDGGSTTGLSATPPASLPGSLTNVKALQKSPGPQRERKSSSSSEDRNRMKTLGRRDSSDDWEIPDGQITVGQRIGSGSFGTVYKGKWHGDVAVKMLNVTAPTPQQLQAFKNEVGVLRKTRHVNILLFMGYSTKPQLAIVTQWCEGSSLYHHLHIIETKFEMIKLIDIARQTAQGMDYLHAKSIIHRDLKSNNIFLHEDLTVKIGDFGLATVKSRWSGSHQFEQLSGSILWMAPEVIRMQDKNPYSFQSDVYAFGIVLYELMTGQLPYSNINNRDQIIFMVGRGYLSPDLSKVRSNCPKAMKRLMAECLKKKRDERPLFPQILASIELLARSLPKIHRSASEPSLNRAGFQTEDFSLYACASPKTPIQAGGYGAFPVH
Chain of CDK3 (human) (Q00526 whole entry, looked up): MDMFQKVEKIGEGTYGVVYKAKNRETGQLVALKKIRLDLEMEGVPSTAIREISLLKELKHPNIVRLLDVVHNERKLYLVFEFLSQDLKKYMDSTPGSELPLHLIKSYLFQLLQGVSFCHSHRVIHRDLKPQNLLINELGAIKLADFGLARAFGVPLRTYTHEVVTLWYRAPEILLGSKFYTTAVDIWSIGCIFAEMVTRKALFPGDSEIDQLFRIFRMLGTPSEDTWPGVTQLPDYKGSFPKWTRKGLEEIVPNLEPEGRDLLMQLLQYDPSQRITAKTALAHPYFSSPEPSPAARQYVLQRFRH

- inhibition of binding [1]: 0%
- inhibition of binding [2]: 0%
- inhibition of binding [3]: 5%
- inhibition of binding [4]: 0%
- inhibition of binding [5]: 0%
- inhibition of binding [6]: 0%
- inhibition of binding [7]: 18%
- inhibition of binding [8]: 0%
- inhibition of binding [9]: 2%
- inhibition of binding [10]: 18%
- inhibition of binding [11]: 0%
- inhibition of binding [12]: 26%
- inhibition of binding [13]: 0%
- inhibition of binding [14]: 8%
- inhibition of binding [15]: 0%
- inhibition of binding [16]: 7%
- inhibition of binding [17]: 19%
- inhibition of binding [18]: 10%
- inhibition of binding [19]: 0%
- inhibition of binding [20]: 0%
- inhibition of binding [21]: 0%
- inhibition of binding [22]: 0%
- inhibition of binding [23]: 0%
- inhibition of binding [24]: 0%
- inhibition of binding [25]: 0%
- inhibition of binding [26]: 0%
- inhibition of binding [27]: 0%
- inhibition of binding [28]: 1%
- inhibition of binding [30]: 5%
- inhibition of binding [31]: 0%
- inhibition of binding [32]: 0%
- inhibition of binding [33]: 0%
- inhibition of binding [34]: 0%
- inhibition of binding [35]: 6%
- inhibition of binding [36]: 0%
- inhibition of binding [37]: 1%
- inhibition of binding [38]: 2%
- inhibition of binding [39]: 0%
- inhibition of binding [40]: 0%
Structure (SMILES): Nc1cc(C(F)(F)F)c(-c2cc(N3CCOCC3)nc(N3CCOCC3)n2)cn1
- inhibition of binding [29]: 2%
